The results in this text go back to ChEMBL document CHEMBL3045282, “Production of phytotoxins by Phoma exigua var. exigua, a potential mycoherbicide against perennial thistles” (J Agric Food Chem, 2008).

For one assay, the system named is Cirsium arvense. The experiment in a line: Herbicidal activity against Cirsium arvense (Canada thistle) assessed as induction of leaf necrotic lesions measured 48 hr post compound treatment by leaf disk- puncture bioassay.
For the next assay, the system named is Sonchus arvensis. The experiment in a line: Herbicidal activity against Sonchus arvensis (field sow-thistle) assessed as induction of leaf necrotic lesions measured 48 hr post compound treatment by leaf disk- puncture bioassay.

Active and inactive are the calls of the source. The calls are words filed in the database; no cut-off is given here.

Consider `C=C1[C@@H](C)[C@H]2[C@H](Cc3ccccc3)NC(=O)[C@]23OC(=O)/C=C/CC(O)CC[C@@H](C)C/C=C/[C@H]3[C@@H]1O` (stereo partly specified), for which, in the assay with Cirsium arvense, the outcome was Active.

As for `C=C1[C@@H](C)[C@H]2[C@H](Cc3ccccc3)NC(=O)[C@]23OC(=O)/C=C/[C@H](O)CCC[C@@H](C)C/C=C/[C@H]3[C@@H]1O`, the result in the assay with Sonchus arvensis and in the assay on Cirsium arvense was Active.

For the molecule `C[C@H]1C/C=C/[C@H]2C=C(CO)[C@@H](C)[C@H]3[C@H](Cc4ccccc4)NC(=O)[C@]32OC(=O)/C=C/[C@H](O)CCC1`, the outcome in the assay on Sonchus arvensis and with Cirsium arvense was Active.

In the case of `C=C1[C@@H](C)[C@H]2[C@H](Cc3ccccc3)NC(=O)[C@]23C(=O)/C=C/[C@H](O)CCC[C@@H](C)C/C=C/[C@H]3[C@@H]1O`, the result with Sonchus arvensis and in the assay on Cirsium arvense was Active.

Consider `O=Cc1ccc(O)cc1`, for which the result in the assay on Sonchus arvensis and in the assay with Cirsium arvense was inactive.

Take `C[C@H]1C/C=C/[C@H]2[C@@H]3O[C@]3(C)[C@@H](C)[C@H]3[C@H](Cc4ccccc4)NC(=O)[C@]32OC(=O)/C=C/[C@@H](O)CCC1`: the result in the assay with Sonchus arvensis and in the assay on Cirsium arvense was Active.
